According to patent publication US20230165979A1, “COPPER-CONTAINING THERAGNOSTIC COMPOSITIONS AND METHODS OF USE” (Cornell University, priority 2020, published 2023):

Key:
LNCaP xenografts = test: Tissue biodistribution in mice bearing LNCaP xenografts; type: in vivo, male Balb/C nu/nu mice; conditions: for activity in kidneys / tumor uptake: i.v., ±SEM
Protocol: All animal studies were approved by the Institutional Animal Care and Use Committee of Weill Cornell Medicine and were undertaken in accordance with the guidelines set forth by the USPHS Policy on Humane Care and Use of Laboratory Animals. The mice were housed under standard conditions in approved facilities with 12 h light/dark cycles. Food and water was provided ad libitum throughout the course of the studies. Male BALB/c athymic nu/nu mice were purchased from the Jackson Laboratory (USA). Prior to inoculation, LNCaP cells were suspended at a density of 4×10^7 cells/mL in a 1:1 mixture of PBS (VWR, USA):Matrigel (BD Biosciences, USA). Each mouse was injected subcutaneously in the left flank with 0.25 mL of the cell suspension. The animals were monitored twice weekly until palpable tumors emerged.
When tumor size reached approximately 200 mm^3, mice (n=4/time point) were administered 3.8±0.1 MBq [^64Cu]Cu-RPS-085 or 0.8±0.005 MBq [^67Cu]Cu-RPS-085 by intravenous injection. The total mass dose received by each animal was approximately 50 ng (31 pmol) and approximately 28 ng (17 pmol) for the [^64Cu]Cu-RPS-085 and [^67Cu]Cu-RPS-085 studies, respectively. The mice were sacrificed at 4 h, 24 h, or 48 h p.i. ([^64Cu]Cu-RPS-085) or 4 h, 24 h, and 96 h ([^67Cu]Cu-RPS-085). A blood sample was collected, and the following tissues were collected and weighed wet using a digital balance: heart, lungs, liver, stomach, small intestine, large intestine, spleen, pancreas, kidneys, muscle, bone, and tumor. The tissues were counted on a Wizard2 Automatic Gamma Counter (Perkin Elmer, USA) against a 1% injected dose standard. The counts were corrected for decay and for activity injected, and tissue uptake was expressed as percent injected dose per gram (% ID/g). Standard error of the mean (SEM) was calculated for each data point. Statistical analyses were performed using an unpaired t test with GraphPad Prism software. A P value of less than 0.05 was considered significant. The concentration of [67Cu]Cu-RPS-085 found in blood, heart, lungs, liver, small intestine, large intestine, stomach, spleen, pancreas, kidneys, muscle, and bone at 4 h, 24 h, and 96 h, post injection (n=4 per time point) is shown in Table 1 below. Published values for [177Lu]Lu-RPS-063 are shown for comparison; all concentrations are expressed as percent injected dose per organ.

Plasma stability = type: in vitro ADME, human; conditions: 24 h, 37° C.
Protocol: The plasma stability of [^67Cu]Cu-RPS-085 was determined according to previously described methods (Alt, et al., Mol Pharmaceutics. 2014; 11: 2855-63). Briefly, frozen human plasma was purchased from Sigma Aldrich (USA), thawed at 37° C., and 200 μL aliquots were transferred to Eppendorf tubes. A 100 μL aliquot of [^67Cu]Cu-RPS-085 in 10% EtOH/saline was added to each tube, and the mixture was shaken at 300 rpm for 24 h at 37° C. on an Eppendorf ThermoMixer® C (VWR, USA). The experiment was performed in triplicate. The proteins were precipitated by addition of 600 μL acetonitrile. The samples were centrifuged at 13500 rpm for 3 min in an Eppendorf 5424-R Centrifuge. The supernatant was analyzed by analytical reverse phase (radio)HPLC as described above. After 24 h incubation in human plasma, [^67Cu]Cu-RPS-085 was 97.4±0.4% intact. The lone radiochemical impurity was an unidentified fragment of the parent compound.

PSMA on LNCaP cells = target: T1, PSMA on LNCaP cells (Homo sapiens, UniProt Q04609); test: Multi-concentration competitive binding assay against 99mTc-MIP-1427
T1 construct: host or cells: LNCaP
T1 sequence (Q04609 whole entry): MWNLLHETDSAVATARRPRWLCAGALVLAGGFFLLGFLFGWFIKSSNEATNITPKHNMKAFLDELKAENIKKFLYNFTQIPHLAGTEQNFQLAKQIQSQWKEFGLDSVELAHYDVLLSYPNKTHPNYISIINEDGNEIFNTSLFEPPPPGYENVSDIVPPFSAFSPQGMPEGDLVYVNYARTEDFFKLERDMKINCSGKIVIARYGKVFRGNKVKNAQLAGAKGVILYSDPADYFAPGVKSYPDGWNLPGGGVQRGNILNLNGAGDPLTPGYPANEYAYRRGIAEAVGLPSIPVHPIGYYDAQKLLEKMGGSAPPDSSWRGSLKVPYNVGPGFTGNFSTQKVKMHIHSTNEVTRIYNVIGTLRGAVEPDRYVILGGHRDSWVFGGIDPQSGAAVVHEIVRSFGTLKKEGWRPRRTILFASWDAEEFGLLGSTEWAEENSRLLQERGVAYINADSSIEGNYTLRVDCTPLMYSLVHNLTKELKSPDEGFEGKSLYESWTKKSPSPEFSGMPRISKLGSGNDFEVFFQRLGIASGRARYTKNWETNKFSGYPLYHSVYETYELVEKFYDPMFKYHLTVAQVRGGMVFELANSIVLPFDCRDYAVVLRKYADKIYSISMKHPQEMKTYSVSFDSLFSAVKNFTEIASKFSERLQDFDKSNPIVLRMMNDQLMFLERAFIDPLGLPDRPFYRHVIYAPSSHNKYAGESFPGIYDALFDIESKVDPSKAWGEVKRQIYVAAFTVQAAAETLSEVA
Protocol: The PSMA-expressing human prostate cancer cell line, LNCaP, was obtained from the American Type Culture Collection. Cell culture supplies were obtained from Invitrogen (USA) unless otherwise noted. LNCaP cells were maintained in RPMI-1640 medium supplemented with 10% fetal bovine serum (Hyclone), 4 mM L-glutamine, 1 mM sodium pyruvate, 10 mM N-2-hydroxyethylpiperazine-N-2-ethanesulfonic acid (HEPES), 2.5 mg/mL D-glucose, and […] gentamicin in a humidified incubator at 37° C./5% CO2. Cells were removed from flasks for passage or for transfer to 12-well assay plates by incubating them with 0.25% trypsin/ethylenediaminetetraacetic acid (EDTA).
The IC50 of metal-free RPS-085 was determined in a multi-concentration competitive binding assay against ^99mTc-MIP-1427 (Hillier et al., J Nucl Med. 2013; 54: 1369-76) for binding to PSMA on LNCaP cells, according to previously described methods (Kelly et al., Eur J Nucl Med Mol Imaging. 2018; 45: 1841-51). RPS-085 was added in to the wells in final concentrations ranging from 1 pM-10 μM. The assay was performed in triplicate, and the IC50 was expressed as mean±standard deviation.

CC12CNCCNCC(NC(=O)CCCC(=O)NCCCC[C@H](NC(=O)CCOCCOCCOCCn3cc(-c4cccc(NC(=O)NCCCC[C@H](NC(=O)N[C@@H](CCC(=O)O)C(=O)O)C(=O)O)c4)nn3)C(=O)N[C@@H](CCCCNC(=O)Cc3ccc(I)cc3)C(=O)O)(CNCCNC1)CNCCNC2.[67Cu+2] [[^67Cu]Cu-RPS-085]
activity in kidneys (LNCaP xenografts; 4 h p.i.): 19.7±5.0 % ID/g
tumor uptake (LNCaP xenografts; 4 h p.i.): 12.5±2.7 % ID/g
Concentration in Blood (LNCaP xenografts; 4 h post injection): 0.02057 percent injected dose per organ
Concentration in Bone (LNCaP xenografts; 4 h post injection): 0.003853 percent injected dose per organ
Concentration in Heart (LNCaP xenografts; 4 h post injection): 0.01078 percent injected dose per organ
Concentration in Kidneys (LNCaP xenografts; 4 h post injection): 11.63 percent injected dose per organ
Concentration in Large Intestine (LNCaP xenografts; 4 h post injection): 0.29 percent injected dose per organ
Concentration in Liver (LNCaP xenografts; 4 h post injection): 0.2795 percent injected dose per organ
Concentration in Lungs (LNCaP xenografts; 4 h post injection): 0.0358 percent injected dose per organ
Concentration in Muscle (LNCaP xenografts; 4 h post injection): 0.002757 percent injected dose per organ
Concentration in Pancreas (LNCaP xenografts; 4 h post injection): 0.00535 percent injected dose per organ
Concentration in Small Intestine (LNCaP xenografts; 4 h post injection): 0.1493 percent injected dose per organ
Concentration in Spleen (LNCaP xenografts; 4 h post injection): 0.02732 percent injected dose per organ
Concentration in Stomach (LNCaP xenografts; 4 h post injection): 0.05547 percent injected dose per organ
activity in kidneys (LNCaP xenografts; 24 h p.i.): 4.5±0.8 % ID/g
tumor uptake (LNCaP xenografts; 24 h p.i.): 7.9±0.9 % ID/g
Concentration in Blood (LNCaP xenografts; 24 h post injection): 0.005816 percent injected dose per organ
Concentration in Bone (LNCaP xenografts; 24 h post injection): 0.001592 percent injected dose per organ
Concentration in Heart (LNCaP xenografts; 24 h post injection): 0.0068 percent injected dose per organ
Concentration in Kidneys (LNCaP xenografts; 24 h post injection): 1.857 percent injected dose per organ
Concentration in Large Intestine (LNCaP xenografts; 24 h post injection): 0.1354 percent injected dose per organ
Concentration in Liver (LNCaP xenografts; 24 h post injection): 0.1811 percent injected dose per organ
Concentration in Lungs (LNCaP xenografts; 24 h post injection): 0.01881 percent injected dose per organ
Concentration in Muscle (LNCaP xenografts; 24 h post injection): 0.001018 percent injected dose per organ
Concentration in Pancreas (LNCaP xenografts; 24 h post injection): 0.002143 percent injected dose per organ
Concentration in Small Intestine (LNCaP xenografts; 24 h post injection): 0.08652 percent injected dose per organ
Concentration in Spleen (LNCaP xenografts; 24 h post injection): 0.008292 percent injected dose per organ
Concentration in Stomach (LNCaP xenografts; 24 h post injection): 0.04228 percent injected dose per organ
tumor-to-kidney ratio (LNCaP xenografts; 96 h p.i.): 3.0±0.5
activity in kidneys (LNCaP xenografts; 96 h p.i.): 1.7±0.3 % ID/g
tumor uptake (LNCaP xenografts; 96 h p.i.): 5.1±3.3 % ID/g
Concentration in Blood (LNCaP xenografts; 96 h post injection): 0.003526 percent injected dose per organ
Concentration in Bone (LNCaP xenografts; 96 h post injection): 0.001075 percent injected dose per organ
Concentration in Heart (LNCaP xenografts; 96 h post injection): 0.008094 percent injected dose per organ
Concentration in Kidneys (LNCaP xenografts; 96 h post injection): 0.6854 percent injected dose per organ
Concentration in Large Intestine (LNCaP xenografts; 96 h post injection): 0.1379 percent injected dose per organ
Concentration in Liver (LNCaP xenografts; 96 h post injection): 0.1208 percent injected dose per organ
Concentration in Lungs (LNCaP xenografts; 96 h post injection): 0.01063 percent injected dose per organ
Concentration in Muscle (LNCaP xenografts; 96 h post injection): 0.000956 percent injected dose per organ
Concentration in Pancreas (LNCaP xenografts; 96 h post injection): 0.003044 percent injected dose per organ
Concentration in Small Intestine (LNCaP xenografts; 96 h post injection): 0.06091 percent injected dose per organ
Concentration in Spleen (LNCaP xenografts; 96 h post injection): 0.005006 percent injected dose per organ
Concentration in Stomach (LNCaP xenografts; 96 h post injection): 0.04483 percent injected dose per organ
accumulated activity (Ã) in kidneys (LNCaP xenografts; over 96 h p.i.): 538 (% ID/g)·h
accumulated activity (Ã) in tumors (LNCaP xenografts; over 96 h p.i.): 699 (% ID/g)·h
Ãtumor relative to [177Lu]PSMA-617 (LNCaP xenografts; over 96 h p.i.): 1.3 times
Ãtumor/Ãkidney ratio (LNCaP xenografts; over 96 h p.i.): 1.3
fraction intact after incubation in human plasma (Plasma stability): 97.4±0.4%
uncomplexed [67Cu]Cu2+ after incubation in human plasma (Plasma stability): No uncomplexed [^67Cu]Cu^2+ was observed

CC12CNCCNCC(NC(=O)CCCC(=O)NCCCC[C@H](NC(=O)CCOCCOCCOCCn3cc(-c4cccc(NC(=O)NCCCC[C@H](NC(=O)N[C@@H](CCC(=O)O)C(=O)O)C(=O)O)c4)nn3)C(=O)N[C@@H](CCCCNC(=O)Cc3ccc(I)cc3)C(=O)O)(CNCCNC1)CNCCNC2 [RPS-085]
IC50 (PSMA on LNCaP cells): 29.1 ± 2.4 nM
affinity for PSMA relative to parent compound RPS-063 (PSMA on LNCaP cells): reduced by approximately one order of magnitude
